Laboratory results taken from ChEMBL document CHEMBL6078700, “Synthesis of novel deuterated EGFR/ALK dual-target inhibitors and their activity against non-small cell lung cancer” (Eur J Med Chem, 2025).
Active and inactive are the calls of the source.

Tests used:
[1] = system: NCI-H1975; test: Induction of DNA damage in human NCI-H1975 cells at 1 nM incubated for 24 hrs by immunofluorescence based analysis; format: functional, cell-based; conditions: tested as the 2H-labelled form
[2] = target: ALK tyrosine kinase receptor (Homo sapiens) (UniProt Q9UM73); test: Inhibition of ALK in human NCI-H2228 cells assessed as decrease in pAKT level upto 10 nM incubated for 2 to 4 hrs by Western blot analysis; format: cell-based; conditions: time 2-4 hrs, tested as the 2H-labelled form
[3] = system: NCI-H1975; test: Inhibition of colony formation in human NCI-H1975 cells assessed as reduction in tumor cell size incubated for 24 hrs followed by medium replacement daily without compound measured after 14 days by crystal violet staining based analysis; format: functional; conditions: dose 1-10 nM, tested as the 2H-labelled form
[4] = target: ALK tyrosine kinase receptor (Homo sapiens) (UniProt Q9UM73); test: Inhibition of ALK phosphorylation in human NCI-H2228 cells at 25 to 50 nM incubated for 12 hrs by immunofluorescence based analysis; format: cell-based; conditions: dose 25-50 nM, tested as the 2H-labelled form
[5] = system: NCI-H1975; test: Induction of apoptosis in human NCI-H1975 cells assessed as decrease in BCL-2 level upto 10 nM incubated for 2 to 4 hrs by Western blot analysis; format: functional, cell-based; conditions: time 2-4 hrs, tested as the 2H-labelled form
[6] = target: ALK tyrosine kinase receptor (Homo sapiens) (UniProt Q9UM73); test: Inhibition of ALK phosphorylation in human NCI-H2228 cells upto 10 nM incubated for 2 to 4 hrs by Western blot analysis; format: cell-based; conditions: time 2-4 hrs, tested as the 2H-labelled form
[7] = system: NCI-H1975; test: Anti-migration activity in human NCI-H1975 cells assessed as decrease in N-cadherin level upto 10 nM incubated for 2 to 4 hrs by Western blot analysis; format: functional, cell-based; conditions: time 2-4 hrs, tested as the 2H-labelled form
[8] = system: NCI-H1975; test: Downregulation of LANCL1 expression in human NCI-H1975 cells; format: functional, cell-based; conditions: tested as the 2H-labelled form
[9] = system: NCI-H1975; test: Induction of apoptosis in human NCI-H1975 cells assessed as decrease in BCL-XL level upto 10 nM incubated for 2 to 4 hrs by Western blot analysis; format: functional, cell-based; conditions: time 2-4 hrs, tested as the 2H-labelled form
[10] = system: Mus musculus; test: In vivo inhibition of EGFR phosphorylation in human NCI-H1975 cells xenografted in BALB/c-nu mouse at 15 to 30 mg/kg, po administered daily orally for 21 days by IHC analysis; format: functional, organism-based; conditions: dose 15-30 mg/kg, time 21.0 day, tested as the 2H-labelled form
[11] = system: NCI-H1975; test: Induction of apoptosis in human NCI-H1975 cells assessed as increase in cleaved caspase-3 level upto 10 nM incubated for 2 to 4 hrs by Western blot analysis; format: functional, cell-based; conditions: time 2-4 hrs, tested as the 2H-labelled form
[12] = system: NCI-H1975; test: Anti-migration activity in human NCI-H1975 cells incubated for 24 hrs by scratch-wound assay; format: functional, cell-based; conditions: dose 5.0 nM, tested as the 2H-labelled form
[13] = target: ALK tyrosine kinase receptor (Homo sapiens) (UniProt Q9UM73); test: Inhibition of ALK in human NCI-H2228 cells assessed as decrease in pERK level upto 10 nM incubated for 2 to 4 hrs by Western blot analysis; format: cell-based; conditions: time 2-4 hrs, tested as the 2H-labelled form
[14] = system: NCI-H1975; test: Inhibition of colony formation in human NCI-H1975 cells assessed as reduction in tumor cell number incubated for 24 hrs followed by medium replacement daily without compound measured after 14 days by crystal violet staining based analysis; format: functional; conditions: dose 1-10 nM, tested as the 2H-labelled form
[15] = system: NCI-H1975; test: Downregulation of Tomm40 expression in human NCI-H1975 cells; format: functional, cell-based; conditions: tested as the 2H-labelled form
[16] = system: NCI-H1975; test: Anti-migration activity in human NCI-H1975 cells assessed as increase in E-cadherin level upto 10 nM incubated for 2 to 4 hrs by Western blot analysis; format: functional, cell-based; conditions: time 2-4 hrs, tested as the 2H-labelled form
[17] = system: NCI-H1975; test: Induction of DNA damage in human NCI-H1975 cells assessed as increase in pH2AX level upto 10 nM incubated for 2 to 4 hrs by Western blot analysis; format: functional, cell-based; conditions: time 2-4 hrs, tested as the 2H-labelled form
[18] = system: NCI-H1975; test: Anti-invasive activity in human NCI-H1975 cells incubated for 48 hrs by transwell assay; format: functional, cell-based; conditions: dose 1-10 nM, tested as the 2H-labelled form
[19] = system: NCI-H1975; test: Downregulation of ERAP2 expression in human NCI-H1975 cells; format: functional, cell-based; conditions: tested as the 2H-labelled form
[20] = system: NCI-H1975; test: Induction of cell cycle arrest in human NCI-H1975 cells assessed as decrease in cyclin D1 level upto 10 nM incubated for 2 to 4 hrs by Western blot analysis; format: functional, cell-based; conditions: time 2-4 hrs, tested as the 2H-labelled form
[21] = system: NCI-H1975; test: Induction of mitochondrial membrane potential in human NCI-H1975 cells assessed as increase in green fluorescence at 5 nM by JC-1 dye based analysis; format: functional, cell-based; conditions: tested as the 2H-labelled form
[22] = system: NCI-H1975; test: Induction of mitochondrial membrane potential in human NCI-H1975 cells assessed as reduction in red fluorescence at 5 nM by JC-1 dye based analysis; format: functional, cell-based; conditions: tested as the 2H-labelled form

Chain of ALK tyrosine kinase receptor (Homo sapiens) (Q9UM73 19-1620 limits assumed): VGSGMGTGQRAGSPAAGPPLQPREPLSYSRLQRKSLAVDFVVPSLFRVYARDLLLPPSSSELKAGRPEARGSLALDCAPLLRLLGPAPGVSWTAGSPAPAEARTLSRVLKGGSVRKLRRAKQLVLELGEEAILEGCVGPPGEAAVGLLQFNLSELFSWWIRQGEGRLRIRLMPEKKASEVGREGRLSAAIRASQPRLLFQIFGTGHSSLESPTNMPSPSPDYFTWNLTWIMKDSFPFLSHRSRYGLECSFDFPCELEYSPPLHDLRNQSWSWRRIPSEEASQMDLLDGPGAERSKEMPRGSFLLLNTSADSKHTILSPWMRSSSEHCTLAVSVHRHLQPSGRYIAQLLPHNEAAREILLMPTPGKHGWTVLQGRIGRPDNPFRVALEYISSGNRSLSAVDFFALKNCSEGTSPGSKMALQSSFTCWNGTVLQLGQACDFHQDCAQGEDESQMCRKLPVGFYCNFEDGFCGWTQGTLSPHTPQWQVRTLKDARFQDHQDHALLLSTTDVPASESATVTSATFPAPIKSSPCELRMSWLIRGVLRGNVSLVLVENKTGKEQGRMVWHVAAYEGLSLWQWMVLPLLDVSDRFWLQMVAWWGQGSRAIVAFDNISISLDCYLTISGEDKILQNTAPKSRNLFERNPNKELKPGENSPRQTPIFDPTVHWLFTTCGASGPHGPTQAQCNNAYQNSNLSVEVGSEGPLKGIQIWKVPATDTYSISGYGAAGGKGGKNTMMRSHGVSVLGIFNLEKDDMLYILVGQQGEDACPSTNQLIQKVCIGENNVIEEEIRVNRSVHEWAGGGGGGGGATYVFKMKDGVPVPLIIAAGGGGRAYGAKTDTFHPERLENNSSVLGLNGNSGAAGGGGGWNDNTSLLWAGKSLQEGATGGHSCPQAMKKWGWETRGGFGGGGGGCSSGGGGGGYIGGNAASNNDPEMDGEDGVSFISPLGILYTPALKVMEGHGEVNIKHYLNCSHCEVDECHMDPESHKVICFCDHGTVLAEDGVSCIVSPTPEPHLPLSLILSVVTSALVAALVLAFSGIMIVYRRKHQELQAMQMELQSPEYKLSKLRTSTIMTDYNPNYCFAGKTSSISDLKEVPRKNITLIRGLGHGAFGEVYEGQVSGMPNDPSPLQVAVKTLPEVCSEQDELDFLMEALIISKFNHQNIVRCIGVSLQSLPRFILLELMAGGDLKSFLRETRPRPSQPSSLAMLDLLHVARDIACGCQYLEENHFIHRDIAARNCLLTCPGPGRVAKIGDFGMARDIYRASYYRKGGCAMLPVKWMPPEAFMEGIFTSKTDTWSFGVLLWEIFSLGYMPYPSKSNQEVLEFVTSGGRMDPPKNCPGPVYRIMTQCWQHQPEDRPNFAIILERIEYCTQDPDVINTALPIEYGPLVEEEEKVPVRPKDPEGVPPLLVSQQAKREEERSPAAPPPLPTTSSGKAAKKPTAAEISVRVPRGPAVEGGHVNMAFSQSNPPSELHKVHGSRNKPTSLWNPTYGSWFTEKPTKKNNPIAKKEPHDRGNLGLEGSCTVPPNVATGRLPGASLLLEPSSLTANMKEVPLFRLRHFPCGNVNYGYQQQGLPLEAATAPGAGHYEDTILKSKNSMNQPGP

C=CC(=O)Nc1cc(Nc2ncc(Cl)c(Nc3ccccc3[S+]([O-])CC)n2)c(OC)cc1N(C)CCN(C)C (single isomer, unassigned; (-))
active: Activity [1] | inhibition [2] | inhibition [3] Dose-dependent-effect | inhibition [4] | Activity [5] | inhibition [6] | Activity [7] | Activity [8] | Activity [9] | inhibition [10] Active; Inhibitory Effect Was Observed Superior To That Of Osimertinib | Activity [11] | Activity [12] Dose-dependent-effect | inhibition [13] | inhibition [14] Dose-dependent-effect | Activity [15] | Activity [16] | Activity [17] | Activity [18] Dose-dependent-effect | Activity [19] | Activity [20] | Activity [21] | Activity [22]
